{"source": "ChEMBL document CHEMBL1201862", "about": "“PubChem BioAssay data set” (2004)", "assay_in_all_cases": "NCI-60 cell line screen, 48 h", "key": {"786-0": {"test_system": "786-0"}, "A498": {"test_system": "A498"}, "A549": {"test_system": "A549"}, "ACHN": {"test_system": "ACHN"}, "BT-549": {"test_system": "BT-549"}, "CAKI-1": {"test_system": "CAKI-1"}, "CCRF-CEM": {"test_system": "CCRF-CEM"}, "COLO 205": {"test_system": "COLO 205"}, "DU-145": {"test_system": "DU-145"}, "EKVX": {"test_system": "EKVX"}, "HCC 2998": {"test_system": "HCC 2998"}, "HCT-116": {"test_system": "HCT-116"}, "HCT-15": {"test_system": "HCT-15"}, "HL-60": {"test_system": "HL-60"}, "HOP-92": {"test_system": "HOP-92"}, "HT-29": {"test_system": "HT-29"}, "Hs-578T": {"test_system": "Hs-578T"}, "IGROV-1": {"test_system": "IGROV-1"}, "K562": {"test_system": "K562"}, "KM12": {"test_system": "KM12"}, "LOX IMVI": {"test_system": "LOX IMVI"}, "M14": {"test_system": "M14"}, "MCF7": {"test_system": "MCF7"}, "MDA-MB-231": {"test_system": "MDA-MB-231"}, "MDA-MB-435": {"test_system": "MDA-MB-435"}, "MDA-N": {"test_system": "MDA-N"}, "MOLT-4": {"test_system": "MOLT-4"}, "NCI-H226": {"test_system": "NCI-H226"}, "NCI-H23": {"test_system": "NCI-H23"}, "NCI-H460": {"test_system": "NCI-H460"}, "NCI-H522": {"test_system": "NCI-H522"}, "NCI/ADR-RES": {"test_system": "NCI/ADR-RES"}, "OVCAR-3": {"test_system": "OVCAR-3"}, "OVCAR-4": {"test_system": "OVCAR-4"}, "OVCAR-5": {"test_system": "OVCAR-5"}, "OVCAR-8": {"test_system": "OVCAR-8"}, "PC-3": {"test_system": "PC-3"}, "RPMI-8226": {"test_system": "RPMI-8226"}, "RXF 393": {"test_system": "RXF 393"}, "SF-268": {"test_system": "SF-268"}, "SF-295": {"test_system": "SF-295"}, "SF-539": {"test_system": "SF-539"}, "SK-MEL-2": {"test_system": "SK-MEL-2"}, "SK-MEL-5": {"test_system": "SK-MEL-5"}, "SK-OV-3": {"test_system": "SK-OV-3"}, "SN12C": {"test_system": "SN12C"}, "SNB-19": {"test_system": "SNB-19"}, "SNB-75": {"test_system": "SNB-75"}, "SR": {"test_system": "SR"}, "SW-620": {"test_system": "SW-620"}, "T47D": {"test_system": "T47D"}, "TK-10": {"test_system": "TK-10"}, "U-251": {"test_system": "U-251"}, "UACC-257": {"test_system": "UACC-257"}, "UACC-62": {"test_system": "UACC-62"}, "UO-31": {"test_system": "UO-31"}}, "note": "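All cell lines were grown in 96-well plates and treated with compound for 48 hours. GI50 = concentration required for 50% inhibition of growth.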 Calls of active or inactive are those of the source. Rule as the data show it: active = GI50 up to about 1.1 µM and inactive = higher."}
{"compound": "COc1cc(C2OC[C@@H]3C(=O)OC[C@H]23)cc(O)c1OC", "note": "(stereo partly specified)", "values": [{"measurement": "GI50", "setting": "786-0", "result": "> 100 µM (inactive)"}, {"measurement": "GI50", "setting": "A498", "result": "> 100 µM (inactive)"}, {"measurement": "GI50", "setting": "A549", "result": "> 100 µM (inactive)"}, {"measurement": "GI50", "setting": "ACHN", "result": "> 100 µM (inactive)"}, {"measurement": "GI50", "setting": "BT-549", "result": "> 100 µM (inactive)"}, {"measurement": "GI50", "setting": "CAKI-1", "result": "> 100 µM (inactive)"}, {"measurement": "GI50", "setting": "CCRF-CEM", "result": "> 100 µM (inactive)"}, {"measurement": "GI50", "setting": "COLO 205", "result": "> 100 µM (inactive)"}, {"measurement": "GI50", "setting": "DU-145", "result": "> 100 µM (inactive)"}, {"measurement": "GI50", "setting": "EKVX", "result": "> 100 µM (inactive)"}, {"measurement": "GI50", "setting": "HCC 2998", "result": "> 100 µM (inactive)"}, {"measurement": "GI50", "setting": "HCT-116", "result": "> 100 µM (inactive)"}, {"measurement": "GI50", "setting": "HCT-15", "result": "> 100", "unit": "µM"}, {"measurement": "GI50", "setting": "HL-60", "result": "> 100 µM (inactive)"}, {"measurement": "GI50", "setting": "HOP-92", "result": "> 100 µM (inactive)"}, {"measurement": "GI50", "setting": "HT-29", "result": "> 100 µM (inactive)"}, {"measurement": "GI50", "setting": "Hs-578T", "result": "> 100 µM (inactive)"}, {"measurement": "GI50", "setting": "IGROV-1", "result": "> 100 µM (inactive)"}, {"measurement": "GI50", "setting": "K562", "result": "> 100 µM (inactive)"}, {"measurement": "GI50", "setting": "KM12", "result": "> 100 µM (inactive)"}, {"measurement": "GI50", "setting": "LOX IMVI", "result": "> 100 µM (inactive)"}, {"measurement": "GI50", "setting": "M14", "result": "> 100 µM (inactive)"}, {"measurement": "GI50", "setting": "MCF7", "result": "> 100 µM (inactive)"}, {"measurement": "GI50", "setting": "MDA-MB-231", "result": "> 100 µM (inactive)"}, {"measurement": "GI50", "setting": "MDA-MB-435", "result": "> 100 µM (inactive)"}, {"measurement": "GI50", "setting": "MDA-N", "result": "> 100 µM (inactive)"}, {"measurement": "GI50", "setting": "MOLT-4", "result": "> 100 µM (inactive)"}, {"measurement": "GI50", "setting": "NCI-H226", "result": "> 100 µM (inactive)"}, {"measurement": "GI50", "setting": "NCI-H23", "result": "> 100 µM (inactive)"}, {"measurement": "GI50", "setting": "NCI-H460", "result": "> 100 µM (inactive)"}, {"measurement": "GI50", "setting": "NCI-H522", "result": "> 100 µM (inactive)"}, {"measurement": "GI50", "setting": "NCI/ADR-RES", "result": "> 100 µM (inactive)"}, {"measurement": "GI50", "setting": "OVCAR-3", "result": "> 100 µM (inactive)"}, {"measurement": "GI50", "setting": "OVCAR-4", "result": "> 100 µM (inactive)"}, {"measurement": "GI50", "setting": "OVCAR-5", "result": "> 100 µM (inactive)"}, {"measurement": "GI50", "setting": "OVCAR-8", "result": "> 100 µM (inactive)"}, {"measurement": "GI50", "setting": "PC-3", "result": "> 100 µM (inactive)"}, {"measurement": "GI50", "setting": "RPMI-8226", "result": "> 100 µM (inactive)"}, {"measurement": "GI50", "setting": "RXF 393", "result": "> 100 µM (inactive)"}, {"measurement": "GI50", "setting": "SF-268", "result": "> 100 µM (inactive)"}, {"measurement": "GI50", "setting": "SF-295", "result": "> 100 µM (inactive)"}, {"measurement": "GI50", "setting": "SF-539", "result": "> 100 µM (inactive)"}, {"measurement": "GI50", "setting": "SK-MEL-2", "result": "> 100 µM (inactive)"}, {"measurement": "GI50", "setting": "SK-MEL-5", "result": "> 100 µM (inactive)"}, {"measurement": "GI50", "setting": "SK-OV-3", "result": "> 100 µM (inactive)"}, {"measurement": "GI50", "setting": "SN12C", "result": "> 100 µM (inactive)"}, {"measurement": "GI50", "setting": "SNB-19", "result": "> 100 µM (inactive)"}, {"measurement": "GI50", "setting": "SNB-75", "result": "> 100 µM (inactive)"}, {"measurement": "GI50", "setting": "SR", "result": "> 100 µM (inactive)"}, {"measurement": "GI50", "setting": "SW-620", "result": "> 100 µM (inactive)"}, {"measurement": "GI50", "setting": "T47D", "result": "> 100 µM (inactive)"}, {"measurement": "GI50", "setting": "TK-10", "result": "> 100 µM (inactive)"}, {"measurement": "GI50", "setting": "U-251", "result": "> 100 µM (inactive)"}, {"measurement": "GI50", "setting": "UACC-257", "result": "> 100 µM (inactive)"}, {"measurement": "GI50", "setting": "UACC-62", "result": "> 100 µM (inactive)"}, {"measurement": "GI50", "setting": "UO-31", "result": "> 100 µM (inactive)"}]}
